From US10463669B2, “Composition for treating or preventing liver cancer” (Seoul National University R&DB Foundation, priority 2016, dated 2019) come the findings set out here.

Common to all, as to assay type: cell-based, human
Assay [1] relates to β-catenin and SetD1A binding to the TERT promoter in Huh7 cells. As to the kind of experiment: Chromatin immunoprecipitation (ChIP) at the TERT promoter. The note with it: HCC (Huh7) cells, with or without 300 μmol/L H2O2. The method, then: As it has been described before (Lim S O, et al. Gastroenterology. 2008; 135: 2128-40, 40 el-8.; Hoffmeyer K, et al. Science. 2012; 336: 1549-54.), several modified ChIP (chromatin immunoprecipitation) tests were carried out. In the presence or absence of a PI3K inhibitor, an AKT inhibitor, or a GSK3β inhibitor, Huh7 cells were cultured for 4 days with or without a treatment of 300 μmol/L H2O2. Under mild shaking for 20 minutes at room temperature, the cells were fixed by using 1% paraformaldehyde. After that, the cells were rinsed twice with ice-cold PBS; resuspended with 400 μL of micrococcal nuclease buffer (50 mmol/L TrisHCl [pH 8.0], 5 mmol/L CaC12, 100 μg/mL BSA, 10 mmol/L KCl, and protease inhibitor cocktail [Roche, Basel, Switzerland; 4693159001]); and disrupted with 2 mm-diameter zirconium beads (Watson); to have micrococcal nuclease digestion (New England Biolabs, Beverly, Mass., USA; M0247S). Chromatin (150 μg) was collected and diluted in a dilution buffer (0.1% NP-40, 2 mmol/L EDTA, 150 mmol/L NaCl, 20 mmol/L TrisHCl [pH 8.0], protease inhibitor cocktail [Roche]), and a phosphatase inhibitor cocktail [Calbiochem]), and then subjected to pre-clearing with 2 μg digested salmon sperm DNA, 10 μL preimmune serum (Santa Cruz Biotechnology; sc-2027), and Dynabeads Protein G (Life Technologies; 1004D) for 2 hours at 4° C. After the immunoprecipitation, 20 μL of Dynabeads Protein G were added thereto and the culture was continued for 2 hours. The Dynabeads were washed continuously for 10 minutes with TSE 1 (0.1% SDS, 1% Triton X-100, 2 mmol/L EDTA, 20 mmol/L TrisHCl, and 150 mmol/L NaCl), TSE II (0.1% SDS, 1% Triton X-100, 2 mmol/L EDTA, 20 mmol/L TrisHCl, and 500 mmol/L NaCl), and buffer III (0.25 mol/L LiCl, 1% NP-40, 1% deoxycholate, 1 mmol/L EDTA, and 10 mmol/L TrisHCl). After that, the beads were washed 3 times with TE buffer, and extraction was made by using 1% SDS and 0.1 mol/L NaHCO3. To have reverse formaldehyde cross-linking, the elution solution was heated overnight at 65° C. By using NucleoSpin DNA clean-up kit, DNA debris were purified. By using primers specific to the TERT promoter region, the PCR amplified product was quantified by qPCR (ABI 7300; Applied Biosystems, Foster City, Calif., USA). The PCR amplification was normalized against the TERT intron. The primer sequences are as follows: β-catenin interaction site for ChIP (forward primer: TCCCGGGTCCCCGGCCCA (SEQ ID NO:8); reverse primer: […] (SEQ ID NO:9)) and TERT intron for ChIP (forward primer: […] (SEQ ID NO:10); reverse primer: […] (SEQ ID NO:11)). For each of the β-catenin interaction site which has been recorded before, 20-22 bp were added. The antibodies that are used are as follows: rabbit polyclonal anti-β-catenin (1:200, Abcam, Cambridge, Mass., USA; ab6302), mouse monoclonal anti-RNA polymerase II (1:50, Covance, Princeton, N.J., USA; MMS-126R), and rabbit polyclonal anti-SETD1A (1:100, Novus Biologicals, Littleton, Colo., USA; NBP1-81513).
Inventors of the present invention made an investigation to see whether or not the increased chromatin accessibility in TERT promoter during TERT transcription is related with β-catenin. To do so, by using intrinsic β-catenin and an antibody against histone methyl transferase SetD1A which has been reported to promote the TERT transcription based on chromatin remodeling, chromatin immunoprecipitation was carried out. When a PI3K or AKT inhibitor is treated together for chromatin immunoprecipitation, β-catenin and SetD1A, which bind to the TERT promoter in HCC cells, were reduced even in the presence of H2O2 (FIGS. 3A and 3B). However, when the treatment is carried out also with a GSK3p inhibitor, increased binding of β-catenin and SetD1A was shown regardless of a treatment with H2O2 (FIG. 3C).

Assay [2] relates to TERT expression in HCC cell lines (Huh7 and Hep3B). Kind of assay: TERT expression, quantitative real time-PCR and immunoblot. The note with it: HCC cells treated simultaneously with NAC and H2O2. The method, then:
Medium was exchanged every day, and the aforementioned cells were cultured for 4 days in 300 μmol/L hydrogen peroxide (H2O2) (Sigma Aldrich; H1009). In several experiments, the cells were treated for 1 hour with 5 mmol/L N-acetylcysteine (NAC) (Sigma Aldrich; A7250), 25 μmol/L idelalisib (LC Laboratoties, Woburn, Mass., USA; I-7447), 25 μmol/L perifosine (LC Laboratoties, Woburn, Mass., USA; P-6522), or 30 μmol/L GSK3β inhibitor (GSK3β inhibitor XI) (Santa Cruz; sc-204770) (31) before adding H2O2. Furthermore, sterilized distilled water (pH 7.0) was used as a negative control (i.e., mock treatment).
PCR was carried out by using TOPrealm qPCR 2×PreMIX (SYBR Green with high ROX) (Enzynomics, Daejeon, Korea; RT501M) and ABI Prism 7300 thermal cycler (Applied Biosystems, Foster City, Calif., USA). […] To examine the primer specificity, a dissociation step was additionally included.
Total 2×10^5 cells were boiled for 5 minutes in 2×SDS sample buffer (100 mmol/L TrisHCl [pH 6.8], 4% SDS, 0.2% bromophenol blue, 20% glycerol, and 200 mmol/L β-mercaptoethanol), and then subjected to SDS-PAGE and Western blotting. To detect the TERT, the cells were cultured in 2×SDS sample buffer for 15 minutes at 55° C. TERT-specific (1:300, Rockland Immunochemicals, Gilbertsville, Pa., USA; 600-401-252), AKT-specific (1:1000, Cell Signaling Technology; #9272), phospho-AKT-specific (1:2000, Cell Signaling Technology; #4060), GAPDH-specific (1:2000, Santa Cruz Biotechnology; sc-47724), or β-actin-specific (1:2000, Sigma-Aldrich, St. Louis, Mo., USA; A5441) antibody was diluted in 5% skim milk or bovine serum albumin with TBS-Tween 20, cultured overnight at 4° C., washed, and cultured with HRP-conjugated secondary antibody (1:1000, Abcam; ab131368, or ab131366). By using FUSION-SOLO imager (Vilber Lourmat, Marne La Vallee, France), a chemical fluorescence image was obtained.

The test system of assay [3] is telomere length in HCC cell lines (Huh7 and Hep3B). As to the kind of experiment: Telomere length (Southern blot, immunoFISH, Flow FISH, quantitative PCR). The note with it: HCC cells treated simultaneously with NAC and H2O2. As to the method:
Volume of the hybridization buffer was adjusted to 100 μl per 10^5 cells. Next, each sample was cultured for 10 minutes in a water bath at 85° C. […] Total 15,000 to 20,000 nuclei were analyzed for the each separate culture. Telomere fluorescence intensity of the all nuclei at […] phase of the cell cycle was measured by using BD FACS Calibur flow cytometer (Becton Dickinson, Franklin Lakes, N.J., USA) in which CELLQUEST software is used. The established ImmunoFISH protocol (Plentz R R, et al., Hepatology. 2007; 45: 968-76) was used with slight modifications. The paraffin-embedded section was subjected to de-paraffinization using xylene, and then rehydrated using ethanol gradient. Antigen retrieval was carried out by boiling in 100 mmol/L sodium citrate (pH 6.0) for 10 minutes in a microwave. After permeation of proteinase K (15 μg/mL in PBS [pH 7.4]) for 20 minutes at 37° C., 8-oxo-dG-specific antibody (1:100, Abcam, Cambridge, Mass., USA; ab62623) was subjected to 1% BSA dilution in PBS 0.1% Triton X-100 and cultured overnight at room temperature. After washing, the slide was treated with Alexa 647 secondary antibody for 1 hour. […] After denaturation for 6 minutes at 90° C., the sample was hybridized for 2 hours at dark place. […] After washing, the slide was rinsed with PBS containing DAPI, and then sealed with a DAPI sealing agent (mounting medium) (Vector Laboratories, Burlingame, Calif., USA). Simultaneously, the inventors of the present invention carried out centromere staining as an internal control for telomere staining and 8-oxo-dG staining. […] For quantification of the telomere fluorescence intensity, centromere fluorescence intensity, and 8-oxo-dG fluorescence intensity, the same exposure time was employed. The telomere fluorescence level and 8-oxo-dG fluorescence level of tumor tissues were calculated by division of the fluorescence level in non-tumor tissues corresponding to 5 random fields. The image analysis was carried out by using Image-Pro plus 6.0 software (Media Cybernetics, Inc., Rockville, Md., USA). Telomere length was determined by using the non-radioactive chemical fluorescence TeloTAGGG telomere length assay (Roche; Cat. No. 12 209 136 001) according to the manual. Genomic DNA was separated from HCC cells using GeneJET Genomic DNA Purification Kit (Thermo Scientific; #K0721), and then 4 μg of the genomic DNA was digested for 16 hours at 37° C. with 20 units of […] digested DNA was subjected to 0.8% agarose gel electrophoresis, and then transferred to a positively charged nylon membrane using capillary transfer. The blotted DNA was hybridized for 16 hours at 42° C. with a digoxigenin (DIG)-labeled probe that is specific to the telomere repeat. After that, it was cultured for 30 minutes at room temperature with DIG-specific antibody conjugated to an alkaline phosphatase Based on quantitative PCR analysis using the genomic DNA extracted from cells, relative telomere repeat copy number (T) and single copy number (S) were determined, and the calculation was made like previous method in which T/S ratio is continuously modified (Cawthon R M. Telomere length measurement by a novel monochrome multiplex quantitative PCR method. Nucleic Acids Res. 2009; 37: e21).

Regarding `O=C1NC(=O)C(c2cn(CCCO)c3ncccc23)=C1c1cnccn1` [GSK3β inhibitor XI], in assay [1], the “SetD1A binding to the TERT promoter” value is “increased” and the “β-catenin binding to the TERT promoter” value was “increased”.

On to `CC(=O)N[C@@H](CS)C(=O)O` [NAC, N-acetylcysteine], for which, in assay [2], the “H2O2-induced increased TERT expression” value is reported as “disappeared”. Also, the “H2O2-induced increased telomere length” value in assay [3] is “disappeared”.

For the compound `CCCCCCCCCCCCCCCCCCOP(=O)([O-])OC1CC[N+](C)(C)CC1` [perifosine], in assay [1], the “SetD1A binding to the TERT promoter” value was “reduced” and the “β-catenin binding to the TERT promoter” value is reported as “reduced”.
